Laboratory results as given in patent US4882349A, “Pyrrolacetic amides having antiinflammatory activity” (priority 1982, dated 1989).

Assays:
[1] = system: carrageenin-induced oedema; assay: carrageenin-induced oedema test (anti-inflammatory activity); type: in vivo, albino male Wistar rats
[2] = system: phenyl-p-quinone-induced writhing (abdominal contractions); assay: phenylquinone-induced writhing test (analgesic activity), compound given 30 min before phenyl-p-quinone; type: in vivo, male Wistar rats
Procedure: Male Wistar rats weighing 110±5 g were caged for 10 days at 22±1° C. and given a balanced diet with free access to water. Twenty-four hours before the experiment the animals were randomized into groups of 10 and fasted for 14 hours but with free access to water. Each dose was tested in 3 groups of rats. Thirty minutes following administration either orally or parenterally of the products to be tested and the vehicle alone (0.5% carboxymethyl-cellulose in physiological saline) in the control animals, each rat was given 2 ml of a 5% absolute ethanol aqueous solution containing 0.36% of phenyl-p-quinone (Sigma Chemical Company) in order to provoke writhings. Fifteen minutes after administration of phenyl-p-quinone the number of contractions were counted for 20 minutes. The inhibiting effect of the compounds under examination on the abdominal contractions induced by phenyl-p-quinone was calculated by the following formula: % protection= [formula]
Table V lists the tested compounds, doses, routes of administration and their efficacy expressed as percentage of protection, taking into account that phenyl-p-quinone was administered thirty minutes after the compounds.

[3] = system: mucus secreted by the respiratory airway; assay: antisecretory activity, respiratory mucus secretion; type: in vivo, albino male New Zealand rabbits; conditions: vs control group
Procedure: The experiment was carried out in accordance with the method described by Y. Kase (Folia Pharmacol. Jap. 73: 605, 1977) for the purpose of investigating whether or not the compounds under examination determine changes in the volume of the mucus secreted by the respiratory airway. Groups of four albino male New Zealand rabbits (mean weight: 2.5 kg) were used for testing each dose per single group. The animals were anesthetized with urethane (1.1 g/ks b.w.) via the intraperitoneal route and a Y cannula was inserted into the trachea. In order to stimulate mucous secretion a humidifier was connected to the cannula permitting the animals to spontaneously breathe air with 100% humidity at a constant temperature of 39° C. The secreted mucus was collected through another opening in the cannula and measured at three and six hours after administration of the compounds under examination or of the vehicle alone administered in the order of […] (controls). Calculation of the increase or decrease in mucous secretion was based upon the percentage differences between the groups treated with the compounds under examination and the control group. Table VII gives the percentage differences in mucous secretion, and the tested compounds with relative doses and routes of administration.

[4] = system: cough provoked by mechanical stimulation of the tracheal bifurcation mucosa; assay: antitussive activity, mechanically provoked coughing; type: in vivo, albino Guinea-pigs; conditions: 1 h after administration
Procedure: The antitussive effect on albino Guinea-pigs weighing 300 g was evaluated using the method described by Y. Kase (Selected Pharmacological Testing Methods, p.363, Marcel Dekker Inc., New York, 1968). Each dose was tested in a group of animals with a Y cannula inserted into the trachea. In order to provoke coughing, the mucosa of the tracheal bifurcation was mechanically stimulated by insertion of a wild boar's hair through an opening in the cannula, while the other opening was connected to a kymograph to plot the amplitude and/or frequency. The reduction in the number of coughs was evaluated at one hour after administration of the compounds under examination by following the plottings for twenty minutes and comparing the response of the control animals.

For `CCOC(=O)c1ccc(NC(=O)Cc2ccc(C(=O)c3ccc(C)cc3)n2C)cc1` [Compound 1-h, 1-methyl-5-p-toluoylpyrrole-2-N-(4-carboxyethyl-phenyl) acetamide], the oedema % inhibition ([1]; 25 mg/Kg per os, 2 h) was 28.9%, the oedema % inhibition ([1]; 25 mg/Kg per os, 4 h) was 30.1% and the oedema % inhibition ([1]; 25 mg/Kg per os, 6 h) was 29.0%. For the same molecule, the oedema % inhibition ([1]; 25 mg/Kg per os, 24 h) was 8.3%, the oedema % inhibition ([1]; 25 mg/Kg per os, 48 h) was 0.0% and the oedema % inhibition ([1]; 25 mg/Kg per os, 72 h) was 0.0%. For the same molecule, the oedema % inhibition ([1]; 25 mg/Kg, Table IV (route not given), 2 h) was 30.1%, the oedema % inhibition ([1]; 25 mg/Kg, Table IV (route not given), 4 h) was 27.9% and the oedema % inhibition ([1]; 25 mg/Kg, Table IV (route not given), 6 h) was 29.0%. It also gave an oedema % inhibition ([1]; 25 mg/Kg, Table IV (route not given), 24 h) of 13.0%, an oedema % inhibition ([1]; 25 mg/Kg, Table IV (route not given), 48 h) of 0.0% and an oedema % inhibition ([1]; 25 mg/Kg, Table IV (route not given), 72 h) of 0.0%. For the same molecule, the oedema % inhibition ([1]; 50 mg/Kg per os, 2 h) was 48.9%, the oedema % inhibition ([1]; 50 mg/Kg per os, 4 h) was 49.0% and the oedema % inhibition ([1]; 50 mg/Kg per os, 6 h) was 47.1%. The oedema % inhibition ([1]; 50 mg/Kg per os, 24 h) was 9.9%, the oedema % inhibition ([1]; 50 mg/Kg per os, 48 h) was 0.0% and the oedema % inhibition ([1]; 50 mg/Kg per os, 72 h) was 0.0%. For the same molecule, the oedema % inhibition ([1]; 50 mg/Kg, Table IV (route not given), 2 h) was 50.2%, the oedema % inhibition ([1]; 50 mg/Kg, Table IV (route not given), 4 h) was 51.0% and the oedema % inhibition ([1]; 50 mg/Kg, Table IV (route not given), 6 h) was 47.0%. It also gave an oedema % inhibition ([1]; 50 mg/Kg, Table IV (route not given), 24 h) of 15.1%, an oedema % inhibition ([1]; 50 mg/Kg, Table IV (route not given), 48 h) of 0.0% and an oedema % inhibition ([1]; 50 mg/Kg, Table IV (route not given), 72 h) of 0.0%. It also gave an oedema % inhibition ([1]; 100 mg/Kg per os, 2 h) of 66.9%, an oedema % inhibition ([1]; 100 mg/Kg per os, 4 h) of 67.1% and an oedema % inhibition ([1]; 100 mg/Kg per os, 6 h) of 69.0%. For the same molecule, the oedema % inhibition ([1]; 100 mg/Kg per os, 24 h) was 22.0%, the oedema % inhibition ([1]; 100 mg/Kg per os, 48 h) was 13.0% and the oedema % inhibition ([1]; 100 mg/Kg per os, 72 h) was 0.0%. It also gave an oedema % inhibition ([1]; 100 mg/Kg, Table IV (route not given), 2 h) of 70.1%, an oedema % inhibition ([1]; 100 mg/Kg, Table IV (route not given), 4 h) of 68.9% and an oedema % inhibition ([1]; 100 mg/Kg, Table IV (route not given), 6 h) of 66.0%. The oedema % inhibition ([1]; 100 mg/Kg, Table IV (route not given), 24 h) was 19.0%, the oedema % inhibition ([1]; 100 mg/Kg, Table IV (route not given), 48 h) was 10.0% and the oedema % inhibition ([1]; 100 mg/Kg, Table IV (route not given), 72 h) was 0.0%. The “% Protection” value ([2]; 5 mg/Kg i.p.) was 18.0%, the “% Protection” value ([2]; 5 mg/Kg per os) was 16.2% and the “% Protection” value ([2]; 10 mg/Kg i.p.) was 44.0%. For the same molecule, the “% Protection” value ([2]; 10 mg/Kg per os) was 37.9%, the “% Protection” value ([2]; 20 mg/Kg i.p.) was 79.0% and the “% Protection” value ([2]; 20 mg/Kg per os) was 70.1%. For the same molecule, the “% difference in mucus secretion” value ([3]; 50 mg/Kg i.p., 3 h) was -8%, the “% difference in mucus secretion” value ([3]; 50 mg/Kg i.p., 6 h) was -3% and the “% difference in mucus secretion” value ([3]; 50 mg/Kg per os, 3 h) was -5%. For the same molecule, the “% difference in mucus secretion” value ([3]; 50 mg/Kg per os, 6 h) was 0.0%, the “% difference in mucus secretion” value ([3]; 75 mg/Kg i.p., 3 h) was -26% and the “% difference in mucus secretion” value ([3]; 75 mg/Kg i.p., 6 h) was -20%. The “% difference in mucus secretion” value ([3]; 75 mg/Kg per os, 3 h) was -19%, the “% difference in mucus secretion” value ([3]; 75 mg/Kg per os, 6 h) was -16% and the “% difference in mucus secretion” value ([3]; 100 mg/Kg i.p., 3 h) was -41%. The “% difference in mucus secretion” value ([3]; 100 mg/Kg i.p., 6 h) was -38%, the “% difference in mucus secretion” value ([3]; 100 mg/Kg per os, 3 h) was -39% and the “% difference in mucus secretion” value ([3]; 100 mg/Kg per os, 6 h) was -32%. The “% inhibition, cough amplitude” value ([4]; 50 mg/Kg i.p.) was 20%, the “% inhibition, cough frequency” value ([4]; 50 mg/Kg i.p.) was 18% and the “% inhibition, cough amplitude” value ([4]; 50 mg/Kg per os) was 13%. The “% inhibition, cough frequency” value ([4]; 50 mg/Kg per os) was 10%, the “% inhibition, cough amplitude” value ([4]; 75 mg/Kg i.p.) was 29% and the “% inhibition, cough frequency” value ([4]; 75 mg/Kg i.p.) was 35%. The “% inhibition, cough amplitude” value ([4]; 75 mg/Kg per os) was 22%, the “% inhibition, cough frequency” value ([4]; 75 mg/Kg per os) was 18% and the “% inhibition, cough amplitude” value ([4]; 100 mg/Kg i.p.) was 45%. For the same molecule, the “% inhibition, cough frequency” value ([4]; 100 mg/Kg i.p.) was 53%, the “% inhibition, cough amplitude” value ([4]; 100 mg/Kg per os) was 40% and the “% inhibition, cough frequency” value ([4]; 100 mg/Kg per os) was 50%.
